In patent US20260285816A1, “Piperazinyl-Modified Quinazolinyl-Aryl Urea Derivative, And Preparation Method And Use Thereof” (Guangxi Normal University, priority 2025, published 2026):
Where two headings read alike, the source gives them in different places.

How the values were obtained:
Type in all cases: cell-based, human
143B cells = assay: CCK-8 anti-proliferative assay, 143B; details: Homo sapiens, 143B, co-incubated 48 h, read-out: Anti-proliferative activity (IC50 ± standard deviation) 143B
Source text: (§1) The obtained quinazolinyl-aryl urea derivatives were screened for compounds with optimal activity using the following method. All cell lines employed in this experiment were of human origin, including: bladder cancer cells: J82, UM-UC-3, T24, 5637, pancreatic cancer cells: BxPC-3, PANC-1, osteosarcoma cells: 143B, MG-63, cervical cancer cells: HeLa, breast cancer cells: MCF-7, NSCLC cells: A549, hepatoblastoma cells: Hep G2, and ovarian cancer cells: SK-OV-3, as well as normal cell lines: immortalized ureteral epithelial cells (SV-HUC-1), embryonic lung fibroblasts (WI-38).
(§2) Experimental Procedure for Anti-Proliferative Activity Evaluation: The CCK-8 assay was employed. Cells in logarithmic growth phase were harvested, adjusted to appropriate density, and uniformly seeded into 96-well plates using a multichannel pipette (180 μL cell suspension containing complete medium per well, 5,000 cells/well). Blank control wells (containing basal medium, CCK-8 solution, and DMSO only) were set. Cells were incubated at 37° C. under 5% CO2. After 70% confluency was reached, test compounds (target compounds/positive controls) were added at final concentrations of 1, 2, 4, 6, 8, 12, 16, 24, and 30 μM (3 repeated wells per concentration). Compounds were pre-dissolved in DMSO, sterilized, and diluted with medium before adding 20 μL/well. After co-incubation for designated durations, 10 μL CCK-8 solution was added per well followed by 1-4 h incubation (different cells have different incubation times). The reaction was terminated, and OD (optical density) values at 450 nm were measured using a microplate reader. Inhibition rates were calculated as: (ODcontrol−ODtreatment)/ODcontrol×100%. Median inhibitory concentrations (IC50 values) were derived using Origin v8.0 software.

T24 cells = assay: CCK-8 anti-proliferative assay, T24; details: Homo sapiens, T-24, co-incubated 48 h, read-out: Anti-proliferative activity (IC50 ± standard deviation) T24
Method in brief: (§3)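 Logarithmic-phase cells are plated at 5,000 cells per well and incubated at 37° C. with 5% CO2. At 70% confluency, compound is added at nine final concentrations from 1 to 30 μM. After exposure, CCK-8 is added and OD at 450 nm measured to calculate IC50.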

MCF-7 cells = assay: CCK-8 anti-proliferative assay, MCF-7; details: Homo sapiens, MCF7, co-incubated 48 h, read-out: Anti-proliferative activity (IC50 ± standard deviation) MCF-7
Method in brief: (§4)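 Anti-proliferative effect is measured by CCK-8 after compound exposure at nine final concentrations between 1 and 30 μM. Treatment starts once seeded cells (5,000/well) reach 70% confluency at 37° C., 5% CO2.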

5637 cells = assay: CCK-8 anti-proliferative assay, 5637; details: Homo sapiens, co-incubated 48 h, read-out: Anti-proliferative activity (IC50 ± standard deviation) 5637
Method in brief: as §4

MG-63 cells = assay: CCK-8 anti-proliferative assay, MG-63; details: Homo sapiens, MG-63, co-incubated 48 h, read-out: Anti-proliferative activity (IC50 ± standard deviation) MG-63
Source text: as §1, §2

SK-OV-3 cells = assay: CCK-8 anti-proliferative assay, SK-OV-3; details: Homo sapiens, SK-OV-3, co-incubated 48 h, read-out: Anti-proliferative activity (IC50 ± standard deviation) SK-OV-3
Protocol: (§5) The obtained quinazolinyl-aryl urea derivatives were screened for compounds with optimal activity using the following method.
as §2, with “The reaction was terminated, and OD (optical density) values at 450 nm were measured using a microplate reader.” left out

UM-UC-3 cells = assay: CCK-8 anti-proliferative assay, UM-UC-3; details: Homo sapiens, UMUC3, co-incubated 48 h, read-out: Anti-proliferative activity (IC50 ± standard deviation) UM-UC-3
Protocol: as §5
as §2, with “The reaction was terminated, and OD (optical density) values at 450 nm were measured using a microplate reader.” left out

BxPC-3 cells = assay: CCK-8 anti-proliferative assay, BxPC-3; details: Homo sapiens, BXPC-3, co-incubated 48 h, read-out: Anti-proliferative activity (IC50 ± standard deviation) BxPC-3
Method in brief: as §3

[1] = system: embryonic lung fibroblasts (WI-38); assay: CCK-8 anti-proliferative assay, normal cells WI-38; details: Homo sapiens, read-out: Anti-proliferative activity (IC50 ± standard deviation) WI-38
Source text: as §1, §2

J82 cells = assay: CCK-8 anti-proliferative assay, J82; details: Homo sapiens, J82, co-incubated 48 h, read-out: Anti-proliferative activity (IC50 ± standard deviation) J82
Protocol: as §5
as §2, with “The reaction was terminated, and OD (optical density) values at 450 nm were measured using a microplate reader.” left out

Hep G2 cells = assay: CCK-8 anti-proliferative assay, Hep G2; details: Homo sapiens, HepG2, co-incubated 48 h, read-out: Anti-proliferative activity (IC50 ± standard deviation) Hep G2
Method in brief: as §3

A549 cells = assay: CCK-8 anti-proliferative assay, A549; details: Homo sapiens, A549, co-incubated 48 h, read-out: Anti-proliferative activity (IC50 ± standard deviation) A549
Method in brief: as §4

HeLa cells = assay: CCK-8 anti-proliferative assay, HeLa; details: Homo sapiens, HeLa, co-incubated 48 h, read-out: Anti-proliferative activity (IC50 ± standard deviation) HeLa
Protocol: as §5
as §2, with “The reaction was terminated, and OD (optical density) values at 450 nm were measured using a microplate reader.” left out

[2] = system: immortalized ureteral epithelial cells (SV-HUC-1); assay: CCK-8 anti-proliferative assay, normal cells SV-HUC-1; details: Homo sapiens, SV-HUC1, normal cells, co-incubated 48 h, read-out: Anti-proliferative activity (IC50 ± standard deviation) SV-HUC-1
Protocol: as §5
as §2, with “The reaction was terminated, and OD (optical density) values at 450 nm were measured using a microplate reader.” left out

PANC-1 cells = assay: CCK-8 anti-proliferative assay, PANC-1; details: Homo sapiens, PANC-1, co-incubated 48 h, read-out: Anti-proliferative activity (IC50 ± standard deviation) PANC-1
Method in brief: as §3

[3] = WI-38, Table 9, co-incubated 48 h
[4] = WI-38, Table 13, co-incubated 48 h

COc1cc2ncnc(NCc3cccc(NC(=O)Nc4ccc(F)c(C(F)(F)F)c4)c3)c2cc1OCCCCCCN1CCN(CCN2CCOCC2)CC1 [Compound 8-1q]
IC50 (143B cells; Table 7): 4.57 ± 0.44 µM | IC50 (T24 cells; Table 6): 6.83 ± 0.87 µM | IC50 (MCF-7 cells; Table 8): 6.64 ± 0.52 µM | IC50 (5637 cells; Table 6): 5.78 ± 0.69 µM | IC50 (MG-63 cells; Table 7): 5.81 ± 0.63 µM | IC50 (SK-OV-3 cells; Table 9): 8.76 ± 0.74 µM | IC50 (UM-UC-3 cells; Table 6): 6.25 ± 0.88 µM | IC50 (BxPC-3 cells; Table 7): 7.78 ± 0.53 µM | IC50 [1, 3]: 7.97 ± 0.63 µM | IC50 (J82 cells; Table 6): 4.26 ± 0.31 µM | IC50 (Hep G2 cells; Table 8): 7.09 ± 0.35 µM | IC50 (A549 cells; Table 8): 10.9 ± 0.67 µM | IC50 (HeLa cells; Table 8): 6.32 ± 0.37 µM | IC50 ([2]; Table 9): 7.61 ± 0.41 µM | IC50 (PANC-1 cells; Table 7): 19.5 ± 1.53 µM

COc1cc2ncnc(NCc3cccc(NC(=O)Nc4ccc(Cl)c(C(F)(F)F)c4)c3)c2cc1OCCCCCCN1CCN(CCN2CCOCC2)CC1 [Compound 8-1r]
IC50 (143B cells; Table 7): 5.41 ± 0.39 µM | IC50 (T24 cells; Table 6): 3.91 ± 0.34 µM | IC50 (MCF-7 cells; Table 8): 4.12 ± 0.15 µM | IC50 (5637 cells; Table 6): 3.59 ± 0.16 µM | IC50 (MG-63 cells; Table 7): 5.31 ± 0.46 µM | IC50 (SK-OV-3 cells; Table 9): 8.51 ± 0.87 µM | IC50 (UM-UC-3 cells; Table 6): 6.14 ± 0.53 µM | IC50 (BxPC-3 cells; Table 7): 7.39 ± 0.62 µM | IC50 [1, 3]: 7.89 ± 0.66 µM | IC50 (J82 cells; Table 6): 6.33 ± 0.61 µM | IC50 (Hep G2 cells; Table 8): 5.59 ± 0.45 µM | IC50 (A549 cells; Table 8): 8.62 ± 0.55 µM | IC50 (HeLa cells; Table 8): 5.76 ± 0.57 µM | IC50 ([2]; Table 9): 7.02 ± 0.53 µM | IC50 (PANC-1 cells; Table 7): 11.9 ± 0.94 µM

COc1cc2ncnc(NCc3cccc(NC(=O)Nc4cc(C(F)(F)F)cc(C(F)(F)F)c4)c3)c2cc1OCCCCCCN1CCN(CCN2CCOCC2)CC1 [Compound 8-1s, N-(3-(((7-methoxy-6-((6-(4-(2-morpholinoethyl)piperazin-1-yl)hexyl)oxy)quinazolin-4-yl)amino)methyl)phenyl)-N′-(3,5-bis(trifluoromethyl)phenyl)urea]
IC50 (143B cells; Table 7): 4.95 ± 0.69 µM | IC50 (T24 cells; Table 6): 6.95 ± 0.51 µM | IC50 (MCF-7 cells; Table 8): 10.3 ± 0.68 µM | IC50 (5637 cells; Table 6): 5.93 ± 0.44 µM | IC50 (MG-63 cells; Table 7): 7.17 ± 0.52 µM | IC50 (SK-OV-3 cells; Table 9): 7.29 ± 0.66 µM | IC50 (UM-UC-3 cells; Table 6): 6.72 ± 0.53 µM | IC50 (BxPC-3 cells; Table 7): 7.31 ± 0.76 µM | IC50 [1, 3]: 7.71 ± 0.54 µM | IC50 (J82 cells; Table 6): 5.63 ± 0.54 µM | IC50 (Hep G2 cells; Table 8): 4.55 ± 0.47 µM | IC50 (A549 cells; Table 8): 12.6 ± 0.48 µM | IC50 (HeLa cells; Table 8): 6.81 ± 0.45 µM | IC50 ([2]; Table 9): 7.31 ± 0.35 µM | IC50 (PANC-1 cells; Table 7): 12.7 ± 0.71 µM

COc1cc2ncnc(NCc3cccc(NC(=O)NC4CCCCC4)c3)c2cc1OCCCCCCN1CCN(CCN2CCOCC2)CC1 [Compound 8-1v, N-(3-(((7-Methoxy-6-((6-(4-(2-morpholinoethyl)piperazin-1-yl)hexyl)oxy)quinazolin-4-yl)amino)methyl)phenyl)-N′-cyclohexylurea]
IC50 (143B cells; Table 7): 22.4 ± 1.63 µM | IC50 (T24 cells; Table 6): 15.8 ± 0.89 µM | IC50 (MCF-7 cells; Table 8): > 30 µM | IC50 (5637 cells; Table 6): 11.2 ± 0.97 µM | IC50 (MG-63 cells; Table 7): 15.6 ± 0.92 µM | IC50 (SK-OV-3 cells; Table 9): > 30 µM | IC50 (UM-UC-3 cells; Table 6): 19 ± 0.34 µM | IC50 (BxPC-3 cells; Table 7): 16.8 ± 1.25 µM | IC50 [1, 3]: 15.4 ± 0.88 µM | IC50 (J82 cells; Table 6): 13.9 ± 0.95 µM | IC50 (Hep G2 cells; Table 8): 10.6 ± 0.94 µM | IC50 (A549 cells; Table 8): 16.5 ± 0.77 µM | IC50 (HeLa cells; Table 8): > 30 µM | IC50 ([2]; Table 9): > 30 µM | IC50 (PANC-1 cells; Table 7): > 30 µM

COc1cc2ncnc(NCc3cccc(NC(=O)Nc4ccccc4)c3)c2cc1OCCCCCCN1CCC(CN2CCN(c3ccccn3)CC2)CC1 [Compound 8-2a, N-(3-(((7-methoxy-6-((6-(4-((4-(pyridin-2-yl)piperazin-1-yl)methyl)piperidin-1-yl)hexyl)oxy)quinazolin-4-yl)amino)methyl)phenyl)-N′-phenylurea]
IC50 (143B cells; Table 11): > 30 µM | IC50 (T24 cells; Table 10): 15.8 ± 0.92 µM | IC50 (MCF-7 cells; Table 12): 26.3 ± 1.46 µM | IC50 (5637 cells; Table 10): 16.2 ± 0.77 µM | IC50 (MG-63 cells; Table 11): 17.4 ± 1.38 µM | IC50 (SK-OV-3 cells; Table 12): 22.4 ± 1.33 µM | IC50 (UM-UC-3 cells; Table 10): 25.8 ± 1.81 µM | IC50 (BxPC-3 cells; Table 11): > 30 µM | IC50 [1, 4]: 17.6 ± 0.72 µM | IC50 (J82 cells; Table 10): > 30 µM | IC50 (Hep G2 cells; Table 12): 25.7 ± 1.81 µM | IC50 (A549 cells; Table 13): > 30 µM | IC50 (HeLa cells; Table 12): > 30 µM | IC50 ([2]; Table 13): 26.4 ± 1.69 µM | IC50 (PANC-1 cells; Table 11): > 30 µM

COc1cc2ncnc(NCc3cccc(NC(=O)Nc4ccccc4C)c3)c2cc1OCCCCCCN1CCC(CN2CCN(c3ccccn3)CC2)CC1 [Compound 8-2b, N-(3-(((7-methoxy-6-((6-(4-((4-(pyridin-2-yl)piperazin-1-yl)methyl)piperidin-1-yl)hexyl)oxy)quinazolin-4-yl)amino)methyl)phenyl)-N′-(2-methylphenyl)urea]
IC50 (143B cells; Table 11): 6.47 ± 0.34 µM | IC50 (T24 cells; Table 10): 6.96 ± 0.85 µM | IC50 (MCF-7 cells; Table 12): 7.25 ± 0.66 µM | IC50 (5637 cells; Table 10): 4.79 ± 0.43 µM | IC50 (MG-63 cells; Table 11): 6.44 ± 0.81 µM | IC50 (SK-OV-3 cells; Table 12): 6.21 ± 0.55 µM | IC50 (UM-UC-3 cells; Table 10): 7.03 ± 0.37 µM | IC50 (BxPC-3 cells; Table 11): 5.92 ± 0.38 µM | IC50 [1, 4]: 9.02 ± 0.41 µM | IC50 (J82 cells; Table 10): 6.86 ± 0.52 µM | IC50 (Hep G2 cells; Table 12): 4.04 ± 0.28 µM | IC50 (A549 cells; Table 13): 5.47 ± 0.22 µM | IC50 (HeLa cells; Table 12): 5.72 ± 0.41 µM | IC50 ([2]; Table 13): 8.74 ± 0.63 µM | IC50 (PANC-1 cells; Table 11): 14.5 ± 0.94 µM
